Measured values reported in patent US12622917B2, “High-activity Wnt pathway inhibitor compound” (ADLAI NORTYE BIOPHARMA CO., LTD., priority 2020, dated 2026).

Key:
Type in all cases: cell-based
[1] = system: Colo205; assay: Proliferation inhibition, Wnt mutant cell line Colo205; conditions: Homo sapiens, COLO 205; Colo205, Wnt pathway-dependent, 96 hours; read-out: Antiproliferative IC50 Colo205
Procedure, shortened: (§1)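 Read-out is a Promega cell viability signal that rises with proliferation, taken after 96 hours of compound treatment. Compound was dosed as a 3-fold dilution series up to 20 uM final, one day after plating 1000 log-phase cells per well; IC50 is calculated against DMSO and no-cell controls.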

[2] = system: Hela; assay: Proliferation inhibition, non-Wnt mutant control cell line Hela; conditions: Homo sapiens, Wnt-independent control cell line, 96 hours, read-out: Antiproliferative IC50 Hela
Text: The cell lines used in the experiment are Colo205 and DU4475 cell lines whose Wnt pathway is continuously activated and whose proliferation is Wnt pathway-dependent; while the BELA and RKO cell lines, whose Wnt pathway is not activated under normal circumstances and the proliferation is independent of Wnt pathway, as control cell lines. It is Judged that the inhibitory effect of the compound of the present invention on Wnt-dependent proliferation is not caused by other non-specific toxicity.
Treat the Colo205, Du4475, HELA and RKO cell lines cultured in their respective mediums in the logarithmic growth phase, collect the cells and prepare a uniform cell suspension of known concentration, and then add it to the 96-well cell culture plate Cell suspension, so that each well contains 1000 cells. Put it into a 5% CO2 incubator and incubate at 37° C. for 20-24 h. On the second day, the fully dissolved, 3-fold serially diluted compound was added to each cell culture well, so that the final maximum concentration in the cell culture well was 20 uM, and the culture was continued for 96 hours. In this test, Promega's cell viability detection test is used for detection. The more the cells proliferate, the stronger the final signal intensity will be. The detection instrument is SpectraMax, full wavelength mode. The wells only added with DMSO were used as positive control wells, and the wells that were not inoculated with cells were used as negative control wells. […] The IC50 value of cell proliferation inhibition was used to evaluate the inhibitory effect of the compound on the Wnt pathway and the toxic effect on normal cells (Table 2).

[3] = system: DU4475; assay: Proliferation inhibition, Wnt mutant cell line DU4475; conditions: Homo sapiens, DU-4475; DU4475, Wnt pathway-dependent, 96 hours; read-out: Antiproliferative IC50 DU4475
Procedure, shortened: as §1

[4] = system: RKO; assay: Proliferation inhibition, non-Wnt mutant control cell line RKO; conditions: Homo sapiens, Wnt-independent control cell line, 96 hours, read-out: Antiproliferative IC50 RKO
Procedure, shortened: as §1

[5] = system: Colo205-LUC-TCF/LEF M1 reporter cell line (Wnt pathway); assay: Colo205-LUC-TCF/LEF M1 reporter gene (luciferase) inhibition; conditions: 4 hours incubation, luciferase readout
Procedure, shortened: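 Luminescent readout of TCF/LEF-regulated luciferase after a 4 h, 37° C compound exposure in a stable Colo205 reporter clone (10,000 cells/well). Serial 3-fold dilutions started at 20 uM; IC50 derived using DMSO-treated cells and no-cell wells as controls.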

IC50 [1] [nM]	IC50 [2] [nM]	IC50 [5] [nM]	Structure (SMILES)	IC50 [3] [nM]	IC50 [4] [nM]
14.6	2590	23	C[C@H]1CCn2ccc3nc(NCc4cnn(Cc5ccc(F)cc5)c4)nc(c32)N1C [63 (W22)]	36.3	3040
43.5	3490	20	Cc1cn2c3c(nc(NCc4cnn(Cc5ccc(F)cc5)c4)nc13)N(C)[C@@H](C)C2 [65 (W32)]	41.7	1720
60.4	1090	34	C[C@H]1Cn2ccc3nc(NCc4ccc(Oc5ccccc5)cc4)nc(c32)N1C [67 (W46)]	62.5	1180
13.1	1410	12	C[C@H]1Cn2ccc3nc(NCc4cnn(Cc5ccc(C(F)(F)F)nc5)c4)nc(c32)N1CC(F)(F)F [70 (W55)]	13.1	1730
13.5	> 10000	20	CN1c2nc(NCc3cnn(Cc4ccc(C(F)(F)F)nc4)c3)nc3ccn(c23)C[C@@H]1CO [71 (W56)]	16.7	> 10000
4.8	> 10000	7	[2H]c1cc2nc(NCc3cnn(Cc4ccc(C(F)(F)F)nc4)c3)nc3c2n1C[C@H](C)N3C [72 (W57)]	2.8	3230
39	5510	10	C[C@H]1Cn2ccc3nc(NCc4ccc(OCc5ccccc5)cc4)nc(c32)N1C [74 (W69)]	46	1690
9.2	3860	15	CN1c2nc(NCc3cnn(Cc4ccc(C(F)(F)F)nc4)c3)nc3ccn(c23)C[C@@H]1C1CC1 [75 (W77)]	6.7	4260
4.7	2920	8	C[C@H]1Cn2ccc3nc(NCc4ccc(Oc5ccc(C(F)(F)F)nc5)nc4)nc(c32)N1C [77 (W86)]	5.1	4010
27.8	914	28	C[C@H]1Cn2ccc3nc(NCc4ccc(Oc5ccc(C(F)(F)F)nc5)cc4)nc(c32)N1C [78 (W87)]	26.3	1420
43.9	3670	20	C[C@H]1Cn2ccc3nc(NCc4ccc(OCCOCC(F)(F)F)nc4)nc(c32)N1C [79 (W95)]	23.7	6890
33.4	> 10000	17	C[C@H]1Cn2ccc3nc(NCc4cnn(CCCC(F)(F)F)c4)nc(c32)N1C [81 (W105)]	19.3	> 10000
5.1	4900	10	C[C@H]1Cn2ccc3nc(NCc4cnn(CC5CCC(F)(F)CC5)c4)nc(c32)N1C [83 (W116)]	5.1	7470
41	4760	17	CN1c2nc(NCc3cnn(CC(F)(F)F)c3)nc3ccn(c23)CC1(C)C [84 (W123)]	36	5540
6.7	2920	7	CN1c2nc(NCc3cnn(Cc4ccc(C(F)(F)F)nc4)c3)nc3ccn(c23)CC1CC(F)(F)F (centres unmarked) [87 (W136)]	5.4	3980
42	> 10000	24	C[C@H]1CN(C2CC2)c2nc(NCc3cnn(Cc4ccc(C(F)(F)F)nc4)c3)nc3ccn1c23 [90 (W152)]	37	5660
12	> 10000	27	C[C@H]1C(=O)N2CCCc3nc(NCc4ccc(Oc5cncc(C(F)(F)F)c5)nc4)nc(c32)N1C [99 (W193)]	21	> 10000
59	> 10000	50	C[C@H]1C(=O)N2CCCc3nc(NCc4ccc(Oc5ccnc(C(F)(F)F)c5)nc4)nc(c32)N1C [100 (W239)]	52	> 10000
86	6980	47	C[C@H]1C(=O)N2CCCc3nc(NCc4ccc(Oc5ccc(C(F)(F)F)nc5)cc4)nc(c32)N1C [101 (W213)]	73	3930
30	> 10000	54	COC[C@H]1C(=O)N2CCCc3nc(NCc4ccc(Oc5ccc(C(F)(F)F)nc5)nc4)nc(c32)N1C [106 (W190), (S)-5-(methoxymethyl)-4-methyl-2-(((6-((6-(trifluoromethyl)pyridin-3-yl)oxo)pyridin-3-yl)methyl)amino)-4,5,9,10-tetrahydro-6H,8H-pyrido[3,2,1-de]pteridin-6-one]	46	> 10000
41	> 10000	53	C[C@H]1C(=O)N2CCCc3nc(NCc4cnn(Cc5ccc(F)cc5)c4)nc(c32)N1C [Example 15, (S)-2-(((1-(4-fluorobenzyl)-1H-pyrazol-4-yl)methyl)amino)-4,5-dimethyl-4,5,9,10-tetrahydro-6H,8H-pyrido[3,2,1-de]pteridin-6-one]	44	> 10000
8	> 10000	9	C[C@H]1CN(C)c2nc(NCc3cnn(Cc4ccc(C(F)(F)F)nc4)c3)nc3ccn1c23 [Example 19, (S)-4,6-dimethyl-N-((1-((6-(trifluoromethyl)pyridin-3-yl)methyl)-1H-pyrazol-4-yl)methyl)-5,6-dihydro-4H-pyrrolo[3,2,1-de]pteridin-2-amine]	9	> 10000
97	> 10000	30	C[C@H]1CN(C)c2nc(NCc3cnn(Cc4ccc(C(F)(F)F)nc4)c3)nc3cc(C(F)F)n1c23 [Example 21, (S)-8-(difluoromethyl)-4,6-dimethyl-N-((1-((6-(trifluoromethyl)pyridin-3-yl)methyl)-1H-pyridine Azol-4-yl)methyl)-5,6-dihydro-4H-pyrrolo[3,2,1-de]pteridin-2-amine]	73	3030
22	> 10000	10	C[C@H]1Cn2c(C(F)F)cc3nc(NCc4cnn(Cc5ccc(C(F)(F)F)nc5)c4)nc(c32)N1C [Example 22, (S)-8-(difluoromethyl)-4,5-dimethyl-N-((1-((6-(trifluoromethyl)pyridin-3-yl)methyl)-1H-pyridine Azol-4-yl)methyl)-5,6-dihydro-4H-pyrrolo[3,2,1-de]pteridin-2-amine]	19	5420
16	> 10000	11	CC(C)N1C[C@H](C)n2ccc3nc(NCc4cnn(Cc5ccc(C(F)(F)F)nc5)c4)nc1c32 [Example 23, (S)-4-isopropyl-6-methyl-N-((1-((6-(trifluoromethyl)pyridin-3-yl)methyl)-1H-pyrazol-4-yl)methyl)-5,6-dihydro-4H-pyrrolo[3,2,1-de]pteridin-2-amine]	15	3380
